Measurements published in ChEMBL document CHEMBL1795295, “Synthesis and antimycobacterial activity of highly functionalized tetrahydro-4(1H)-pyridinones” (2011).
Converted amounts (≈) assume the structure as drawn.

What follows are compounds tested on Mycobacterium tuberculosis (assay: Antimycobacterial activity against Mycobacterium tuberculosis H37Rv by agar dilution method).
Type: functional

Compound | MIC [µM]
O=C1C[C@H](c2ccc(Cl)cc2)N[C@H](c2ccc(Cl)cc2)[C@H]1c1ccccc1 | 31.5 (≈ 12.5 µg/mL)
Cc1ccc([C@H]2N[C@@H](c3ccc(C)cc3)CC(=O)[C@@H]2c2ccccc2)cc1 | 70.3 (≈ 25 µg/mL)
O=C1C[C@H](c2ccc(F)cc2)N[C@H](c2ccc(F)cc2)[C@H]1c1ccccc1 | 34.4 (≈ 12.5 µg/mL)
O=C1C[C@H](c2ccccc2Cl)N[C@H](c2ccccc2Cl)[C@H]1c1ccccc1 | 31.5 (≈ 12.5 µg/mL)
Cc1ccccc1[C@H]1N[C@@H](c2ccccc2C)CC(=O)[C@@H]1c1ccccc1 | 70.3 (≈ 25 µg/mL)
COc1ccccc1[C@H]1N[C@@H](c2ccccc2OC)CC(=O)[C@@H]1c1ccccc1 | 64.5 (≈ 25 µg/mL)
O=C1[C@H](c2ccccc2)[C@@H](c2ccccc2)N[C@@H](c2ccccc2)[C@@H]1c1ccccc1 | 62 (≈ 25 µg/mL)
O=C1[C@H](c2ccccc2)[C@@H](c2ccc(Cl)cc2)N[C@@H](c2ccc(Cl)cc2)[C@@H]1c1ccccc1 | 13.2 (≈ 6.25 µg/mL)
Cc1ccc([C@H]2N[C@@H](c3ccc(C)cc3)[C@H](c3ccccc3)C(=O)[C@@H]2c2ccccc2)cc1 | 29 (≈ 12.5 µg/mL)
COc1ccc([C@H]2N[C@@H](c3ccc(OC)cc3)[C@H](c3ccccc3)C(=O)[C@@H]2c2ccccc2)cc1 | 27 (≈ 12.5 µg/mL)
O=C1[C@H](c2ccccc2)[C@@H](c2ccc(F)cc2)N[C@@H](c2ccc(F)cc2)[C@@H]1c1ccccc1 | 7.12 (≈ 3.13 µg/mL)
O=C1[C@H](c2ccccc2)[C@@H](c2ccccc2Cl)N[C@@H](c2ccccc2Cl)[C@@H]1c1ccccc1 | 13.2 (≈ 6.25 µg/mL)
Cc1ccccc1[C@H]1N[C@@H](c2ccccc2C)[C@H](c2ccccc2)C(=O)[C@@H]1c1ccccc1 | 29 (≈ 12.5 µg/mL)
COc1ccccc1[C@H]1N[C@@H](c2ccccc2OC)[C@H](c2ccccc2)C(=O)[C@@H]1c1ccccc1 | 27 (≈ 12.5 µg/mL)
O=NN1C(c2ccccc2)CC(=O)C(c2ccccc2)C1c1ccccc1 (stereo not drawn) | 17.5 (≈ 6.25 µg/mL)
O=NN1C(c2ccc(Cl)cc2)CC(=O)C(c2ccccc2)C1c1ccc(Cl)cc1 (stereo not drawn) | 7.35 (≈ 3.13 µg/mL)
Cc1ccc(C2CC(=O)C(c3ccccc3)C(c3ccc(C)cc3)N2N=O)cc1 (stereo not drawn) | 8.14 (≈ 3.13 µg/mL)
O=NN1C(c2ccc(F)cc2)CC(=O)C(c2ccccc2)C1c1ccc(F)cc1 (stereo not drawn) | 3.97 (≈ 1.56 µg/mL)
Cc1ccccc1C1CC(=O)C(c2ccccc2)C(c2ccccc2C)N1N=O (stereo not drawn) | 8.14 (≈ 3.13 µg/mL)

Compound | MIC [µM]
O=NN1C(c2ccccc2)C(c2ccccc2)C(=O)C(c2ccccc2)C1c1ccccc1 (stereo not drawn) | 14.4 (≈ 6.25 µg/mL)
O=NN1C(c2ccc(Cl)cc2)C(c2ccccc2)C(=O)C(c2ccccc2)C1c1ccc(Cl)cc1 (stereo not drawn) | 3.11 (≈ 1.56 µg/mL)
Cc1ccc(C2C(c3ccccc3)C(=O)C(c3ccccc3)C(c3ccc(C)cc3)N2N=O)cc1 (stereo not drawn) | 6.79 (≈ 3.13 µg/mL)
COc1ccc(C2C(c3ccccc3)C(=O)C(c3ccccc3)C(c3ccc(OC)cc3)N2N=O)cc1 (stereo not drawn) | 12.7 (≈ 6.25 µg/mL)
O=NN1C(c2ccccc2Cl)C(c2ccccc2)C(=O)C(c2ccccc2)C1c1ccccc1Cl (stereo not drawn) | 3.11 (≈ 1.56 µg/mL)
Cc1ccccc1C1C(c2ccccc2)C(=O)C(c2ccccc2)C(c2ccccc2C)N1N=O (stereo not drawn) | 6.79 (≈ 3.13 µg/mL)
COc1ccccc1C1C(c2ccccc2)C(=O)C(c2ccccc2)C(c2ccccc2OC)N1N=O (stereo not drawn) | 6.35 (≈ 3.13 µg/mL)
N#CN1C(c2ccccc2)CC(=O)C(c2ccccc2)C1c1ccccc1 (stereo not drawn) | 70.9 (≈ 25 µg/mL)
N#CN1C(c2ccc(Cl)cc2)CC(=O)C(c2ccccc2)C1c1ccc(Cl)cc1 (stereo not drawn) | 29.7 (≈ 12.5 µg/mL)
Cc1ccc(C2CC(=O)C(c3ccccc3)C(c3ccc(C)cc3)N2C#N)cc1 (stereo not drawn) | 65.7 (≈ 25 µg/mL)
COc1ccc(C2CC(=O)C(c3ccccc3)C(c3ccc(OC)cc3)N2C#N)cc1 (stereo not drawn) | 30.3 (≈ 12.5 µg/mL)
N#CN1C(c2ccc(F)cc2)CC(=O)C(c2ccccc2)C1c1ccc(F)cc1 (stereo not drawn) | 16.1 (≈ 6.25 µg/mL)
N#CN1C(c2ccccc2)C(c2ccccc2)C(=O)C(c2ccccc2)C1c1ccccc1 (stereo not drawn) | 58.3 (≈ 25 µg/mL)
N#CN1C(c2ccc(Cl)cc2)C(c2ccccc2)C(=O)C(c2ccccc2)C1c1ccc(Cl)cc1 (stereo not drawn) | 25.1 (≈ 12.5 µg/mL)
N#CN1C(c2ccccc2Cl)C(c2ccccc2)C(=O)C(c2ccccc2)C1c1ccccc1Cl (stereo not drawn) | 12.6 (≈ 6.25 µg/mL)
Cc1ccccc1C1C(c2ccccc2)C(=O)C(c2ccccc2)C(c2ccccc2C)N1C#N (stereo not drawn) | 27.4 (≈ 12.5 µg/mL)
CC[C@@H](CO)NCCN[C@@H](CC)CO [ETHAMBUTOL] | 7.6 (≈ 1.55 µg/mL)
NNC(=O)c1ccncc1 [ISONIAZID] | 0.4 (≈ 0.0549 µg/mL)
NC(=O)c1cnccn1 [PYRAZINAMIDE] | 50.8 (≈ 6.25 µg/mL)
